{"source": "patent US20080045594A1", "about": "“Use of at Least One Conjugated Triene-Containing Fatty Acid for Preparing a Medicine for Treating Inflammation” (LABORATOIRES EXPANSCIENCE, priority 2004, published 2008)", "tested_on": "Normal human adipocytes", "experiment": "lipid synthesis in suspended adipocytes (incorporation of radio-labelled acetate)", "assay_type": "cell-based", "conditions": "10 μM; reference molecule, inhibitor of FAS", "procedure": "Normal human adipocytes were isolated from abdominal biopsies (plastic surgery). Immediately after receipt, the samples were incubated for 30 min at 37° C. in the presence of collagenase (Sigma). The suspension of adipocytes is then rinsed and diluted 3 times in the culture medium.\nCulture medium: bicarbonate (Life Technologies) 1.87 mg/ml, penicillin/streptomycin (Life Technologies) 25 IU/ml/25 μg/ml, glutamine (Life Technologies) 2 mM, MEM (Merck Eurolab) 100% v/v, albumin of bovine origin (Sigma) 0.5% w/v.\nThe suspended adipocytes are incubated for 1 h at 37° C. in the presence of different concentrations of MA105 (20 and 2 ppm) diluted in THF (tetrahydrofurane). A […] volume of radio-labelled acetate (2-C^14, 60.87 μCi/ml, Amersham) is then added to the preparation. After 4 hrs of incubation, the lipids are extracted according to the procedure described by Bligh and Dyer (methanol/chloroform/water), evaporated under nitrogen and the incorporated radioactivity was quantitated by liquid scintillation (LKB 1210 Rackbeta)."}
{"smiles": "C/C=C/C/C=C/CCC(=O)[C@H]1O[C@H]1C(N)=O", "note": "[ceruline]", "values": [{"measurement": "inhibition of the incorporation of acetate", "value": 75, "unit": "% inhibition/control"}]}
